According to patent US10919869B2, “Thiazole derivative and applications” (EAST CHINA UNIVERSITY OF SCIENCE AND TECHNOLOGY, priority 2016, dated 2021):
Where two headings read alike, the source gives them in different places.

How the values were obtained:
hsDHODH = hsDHODH (Homo sapiens (Human), UniProt Q02127); assay: Activity test at enzyme level: DHODH inhibition, DCIP absorbance at 600 nm; assay type: biochemical
Description: Culture and Purification of hsDHODH Protein
The correctly sequenced recombinant plasmid pET-19b-DHODH was transformed into competent E. coli BL21 (DE3), and cultured on LB plate containing ampicillin. Colonies were randomly selected, inoculated into LB medium containing […], and incubate overnight at 37° C., 230 rpm. The cells were inoculated at a ratio of 1:200 in 500 mL of LB medium containing […] and expanded at 37° C., 230 rpm. When the OD value of the cells reached 0.8-1, IPTG was added into the medium to a final concentration of IPDG of 0.5 mM, and expression was induced overnight at 25° C. The induced cells were collected by centrifugation at […], 4° C., washed with deionized water, and centrifuged again to collect the bacterial pellet, which was stored at −80° C.
Purification of protein: cells were re-suspended in lysis liquid containing 50 mM HEPES (pH 8.0), 0.15 M NaCl, 10 mM imidazole, 10% glycerol, 0.1% Triton X-100, and a small amount of soy protease inhibitor added. After re-suspended and mixed homogeneously, cells were ultrasonically disrupted. The disruption solution was centrifuged for 30 min, and the supernatant and precipitate were taken for protein electrophoresis to determine the form of protein. The supernatant was loaded onto a Ni-NTA column, and the pass-through liquid was collected, and then the resin was washed for 3-4 times with a lysis liquid containing 20 mM imidazole, and finally eluted with a lysis liquid containing 300 mM imidazole. After elution, protein solution was collected. 10 μL of the above protein sample was taken for SDS-PAGE electrophoresis to determine the content of target protein. Finally, the eluted protein solution is dialyzed in the dialysis liquid to remove imidazole, thereby obtaining a pure protein.
Method for Testing Activities of Compounds at Enzyme Level
Principles of activity test at enzyme level: firstly, dihydroorotate (DHO) is oxidatively dehydrogenated by DHODH to form orotic acid (Orotate, OA), accompanied by reduction of Flavin mononucleotide (FMN) into reduced flavin mononucleotide (FMNH2) by accepting 2H+ and 2e−, then coenzyme Q (CoQ) as hydrogen acceptor accepting electron and proton from FMNH2 is reduced into reduced coenzyme Q (CoQH2), reduced coenzyme Q transfers electrons to a chromogenic substrate, […] (DCIP), and finally DCIP was reduced. […] The degree to which the substrate DHO is oxidized can be judged based on the degree of decrease in absorbance. The degree of oxidation of the substrate DHO per unit time is the initial rate of the enzymatic reaction. Upon addition of a inhibitor, the initial rate of the enzymatic reaction is reduced.
Substrate DHO was added to start the reaction with a DHO final concentration of 500 μM. The absorbance was read at 600 nm using a BioTek microplate reader and read every 30 s for 6 min. […] For calculating IC50 of a compound, Origin 8.0 was used to test the inhibition rate at least 8 concentrations.

CIA model rats = assay: Pharmacodynamic evaluation on rheumatoid arthritis model (type II collagen-induced arthritis, CIA); assay type: in vivo, Wistar rat; settings: CIA Wistar rats; for degree of joint swelling: FIG. 2B; for gain of body weight: intraperitoneal injection, FIG. 2A
Description: The animal model used in this experiment was a type II collagen-induced arthritis animal model (CIA) established by using Wistar rat. On the 0 and 7th day of the experiment, rats were subcutaneously injected with a mixed solution of Bovine II Collagen (CII) and Incomplete Freund's Adjuvant (IFA) to establish a rat model of arthritis.
In the pharmacodynamic test of Compound 1, Compound 1 and the positive drug, methotrexate were dissolved in a solvent system consisting of dimethyl sulfoxide (DMSO), polyethylene glycol 400 (PEG 400) and physiological saline at a volume ratio of 1:10:9.
During the administration to the rats (day 0 to 27 of the experiment), the body weight of a rat was weighed every three days, and the growth was observed. After the joints of the rat began to swell, the degree of joint swelling was scored every two days.
Because the incidence of inflammation in fore paw is low and the hind paws are more prone to swelling and the degree of swelling is more serious, the sum of the scores of two hind paws is used to evaluate the incidence of arthritis in rats. The maximum sum of score is 8 points.
In this experiment, Wistar rats were used to establish a CIA animal model. Joints were taken on the 28th day for subsequent fixation, paraffin embedding, section, staining and histopathological observation. The experiment results are shown as follows: During the experiment, the weight of rats in the control group continued to increase.

[1] = pharmaceutically acceptable esters (prodrugs of A and B series), hsDHODH enzyme test, read-out: IC50

hsDHODH, sequence (Q02127 whole entry): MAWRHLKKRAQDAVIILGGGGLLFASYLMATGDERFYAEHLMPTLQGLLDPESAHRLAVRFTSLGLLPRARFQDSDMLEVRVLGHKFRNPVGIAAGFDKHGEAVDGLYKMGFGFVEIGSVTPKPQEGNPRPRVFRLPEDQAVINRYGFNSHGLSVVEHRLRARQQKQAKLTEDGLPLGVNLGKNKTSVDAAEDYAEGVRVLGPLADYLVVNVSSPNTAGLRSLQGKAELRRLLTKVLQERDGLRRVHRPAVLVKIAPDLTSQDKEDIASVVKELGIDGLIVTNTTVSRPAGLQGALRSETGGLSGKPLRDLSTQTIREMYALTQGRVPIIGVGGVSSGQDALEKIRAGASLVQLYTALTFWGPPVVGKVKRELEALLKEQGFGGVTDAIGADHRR

In the case of `CN(/N=C/c1ccccc1C(=O)O)c1nc(-c2ccccc2Cl)cs1` [Compound 1, (E)-4-(2-chlorophenyl)-2-[1-methyl-2-(2-carboxybenzylidene)hydrazino]thiazole], the IC50 (hsDHODH; purified DHODH 10 nM, DHO 500 μM, CoQ 100 μM, DCIP 120 μM, read-out: IC50 (μM) hsDHODH) is reported as 0.0097 ± 0.0001 µM, the “degree of joint swelling” value (CIA model rats; 5 mg/kg intraperitoneal, compared with model group) is reported as “significantly reduced” and the “degree of joint swelling” value (CIA model rats; 30 mg/kg intraperitoneal, compared with model group) is reported as “more significantly reduced”. The “gain of body weight” value (CIA model rats; compared with model group) was “improve the condition of the rats and the slow gain of body weight”, the “histopathological features of joint tissue (HE staining)” value (CIA model rats; joints taken on day 28, FIG. 3) was “significantly alleviated” and the “synovial hyperplasia and inflammatory cell infiltration” value (CIA model rats; tissue sections, compared with model group) was “greatly improved”.

`CN(/N=C/c1ccccc1C(=O)OC1CCCCC1)c1nc(-c2ccccc2Cl)cs1` [Compound B8, (E)-4-(2-chlorophenyl)-2-[1-methyl-2-(2-cyclohexyloxyformylbenzylidene)hydrazino]thiazole] was tested, and the IC50 (hsDHODH; [1]) was > 50 µM.

`CN(/N=C/c1ccccc1C(=O)OCOC(=O)C(C)(C)C)c1nc(-c2ccccc2Cl)cs1` [Compound B10, (pivaloyloxy)methyl (E)-2-((2-(4-(2-chlorophenyl)thiazol-2-yl)-2-methylhydrazono)methyl)benzoate] was tested, and the IC50 (hsDHODH; [1]) was > 50 µM.

With `CC(C)OC(=O)OCOC(=O)c1ccccc1/C=N/N(C)c1nc(-c2ccccc2Cl)cs1` [Compound B11, ((isopropoxycarbonyl)oxy)methyl (E)-2-((2-(4-(2-chlorophenyl)thiazol-2-yl)-2-methylhydrazono)methyl)benzoate] the IC50 (hsDHODH; [1]) was > 50 µM.

With `CN(Cc1cnc2nc(N)nc(N)c2n1)c1ccc(C(=O)N[C@@H](CCC(=O)O)C(=O)O)cc1` [Methotrexate, reference compound] the “degree of joint swelling” value (CIA model rats; 0.3 mg/kg intraperitoneal, positive drug) was “significantly reduce the degree of joint swelling” and the “gain of body weight” value (CIA model rats; compared with model group) was “improve the condition of the rats and the slow gain of body weight”.
